Bridge positions count the residues as written; N and C are the ends. Peptide text beside a SMILES is read from it.

Among the data in doi:10.1101/2025.01.28.635346v1 (bioRxiv, 2025) are IC50 values, retold here.

Experiment [1] addresses T1, integrin αvβ6 (Homo sapiens, UniProt P06756+P18564). In words: ELISA competition assay, integrin αvβ6 binding to LAP.
In experiment [2] the target is T2, integrin αvβ8 (Homo sapiens, UniProt P06756+P26012). The experiment is described as follows: ELISA competition assay, integrin αvβ8 binding to LAP.
The target in the next experiment is integrin αvβ3 (Homo sapiens, UniProt P05106+P06756). The experiment is described as follows: ELISA competition assay, integrin αvβ3. Format: binding.
Experiment [3] has as its target T1, integrin αvβ6. In words: AlphaLISA competition assay vs LAP, biotinylated αvβ6. Format: binding.
In experiment [4] the target is T2, integrin αvβ8. The experiment is described as follows: AlphaLISA competition assay vs LAP, biotinylated αvβ8. The experiment is classed as binding.
Setting [5] is: αvβ6 IC50, ELISA competition vs LAP, mean, n ≥ 3.

On to `CC[C@H](C)[C@H](NC(=O)[C@@H]1CCCN1C(=O)[C@H](CC(C)C)NC(=O)[C@H](CC(=O)O)NC(=O)CNC(=O)[C@H](CCCNC(=N)N)NC(=O)[C@@H](NC(=O)[C@H](Cc1ccc(O)cc1)NC(=O)[C@@H]1CCC(=O)NCC(=O)NCC(=O)N[C@@H](C)C(=O)NCC(=O)N[C@@H](Cc2c[nH]cn2)C(=O)N[C@@H](C(C)C)C(=O)N2CCC[C@H]2C(=O)N1)C(C)C)C(=O)N[C@@H](CO)C(=O)N[C@@H](Cc1ccccc1)C(=O)N[C@@H](Cc1ccc(O)cc1)C(=O)NCC(=O)O` [lassotide 12] (GGAGHVPEYVRGDLPISFYG-OH; lactam N-8; C-terminus assumed), for which the IC50 at integrin αvβ6 [1] (setting [5]) was found to be 177 nM; on integrin αvβ8 [2], 475 nM; on integrin αvβ3, 1 nM.
Regarding `CC[C@H](C)[C@H](NC(=O)[C@@H]1CCCN1C(=O)[C@H](CC(C)C)NC(=O)[C@H](CC(=O)O)NC(=O)CNC(=O)[C@H](CCCNC(=N)N)NC(=O)[C@H](Cc1ccccc1)NC(=O)[C@H](Cc1ccc(O)cc1)NC(=O)[C@@H]1CCC(=O)NCC(=O)NCC(=O)N[C@@H](C)C(=O)NCC(=O)N[C@@H](Cc2c[nH]cn2)C(=O)N[C@@H](C(C)C)C(=O)N2CCC[C@H]2C(=O)N1)C(=O)N[C@@H](CO)C(=O)N[C@@H](Cc1ccccc1)C(=O)N[C@@H](Cc1ccc(O)cc1)C(=O)NCC(=O)O` [lassotide 13] (GGAGHVPEYFRGDLPISFYG-OH; lactam N-8; C-terminus assumed), the values for the IC50 on integrin αvβ6 [1] (setting [5]), at integrin αvβ8 [2] and at integrin αvβ3 were 624 nM, 221 nM and 20 nM, respectively.
For `CC[C@H](C)[C@@H]1NC(=O)[C@H]([C@@H](C)CC)NC(=O)[C@@H]2CCCN2C(=O)CNC(=O)[C@H](CC(=O)O)NC(=O)[C@H](CO)NC(=O)CNC(=O)CC[C@@H](C(=O)N[C@@H](Cc2ccccc2)C(=O)N[C@@H](Cc2ccccc2)C(=O)N[C@@H](CC(N)=O)C(=O)N2CCC[C@H]2C(=O)N[C@@H](CC(N)=O)C(=O)NCC(=O)N[C@H](C(=O)N[C@@H](CCSC)C(=O)N[C@@H](Cc2c[nH]cn2)C(=O)N[C@@H](Cc2ccc(O)cc2)C(=O)NCC(=O)O)C(C)C)NC1=O` [lassotide 15, klebsidin, reference compound] (GSDGPIIEFFNPNGVMHYG-OH; lactam N-8; C-terminus assumed), the half-inhibitory concentration (IC50) on integrin αvβ6 [1], on integrin αvβ8 [2] and at integrin αvβ3 was > 10000 nM throughout.
Take `CC(C)C[C@H](NC(=O)[C@H](CC(=O)O)NC(=O)CNC(=O)[C@H](CCCNC(=N)N)NC(=O)[C@@H](NC(=O)[C@H](Cc1ccccc1)NC(=O)[C@H](Cc1ccc(O)cc1)NC(=O)[C@@H]1CCC(=O)NCC(=O)NCC(=O)N[C@@H](C)C(=O)NCC(=O)N[C@@H](Cc2c[nH]cn2)C(=O)N[C@@H](C(C)C)C(=O)N2CCC[C@H]2C(=O)N1)C(C)C)C(=O)N[C@@H](CCC(=O)O)C(=O)N[C@@H](CO)C(=O)N[C@@H](Cc1ccccc1)C(=O)N[C@@H](Cc1ccc(O)cc1)C(=O)NCC(=O)O` [lassotide 27] (GGAGHVPEYFVRGDLESFYG-OH; lactam N-8; C-terminus assumed): the concentration for half-maximal inhibition (IC50) at integrin αvβ6 [3] was determined as 141 nM; on integrin αvβ8 [4], 264 nM.
For the molecule `CC[C@H](C)[C@H](NC(=O)[C@H](CC(C)C)NC(=O)[C@H](CC(=O)O)NC(=O)CNC(=O)[C@H](CCCNC(=N)N)NC(=O)[C@@H](NC(=O)[C@H](Cc1ccccc1)NC(=O)[C@H](Cc1ccc(O)cc1)NC(=O)[C@@H]1CCC(=O)NCC(=O)NCC(=O)N[C@@H](Cc2ccccc2)C(=O)NCC(=O)N[C@@H](Cc2c[nH]cn2)C(=O)N[C@@H](C(C)C)C(=O)N2CCC[C@H]2C(=O)N1)C(C)C)C(=O)N[C@@H](CO)C(=O)N[C@@H](Cc1ccccc1)C(=O)N[C@@H](Cc1ccc(O)cc1)C(=O)NCC(=O)O` [lassotide 33] (GGFGHVPEYFVRGDLISFYG-OH; lactam N-8; C-terminus assumed), the 50% inhibitory concentration (IC50) came to 347 nM on integrin αvβ6 [3] and 125 nM on integrin αvβ8 [4].
